Values quoted from earlier work, collected in patent US7079956B2, “Crystal structure of antibiotics bound to the 30S ribosome and its use” (Medical Research Council, priority 2000, dated 2006).

Conditions: literature values: Ross et al. 1998 (tetracycline), Cohen et al. 1969 (pactamycin), Cabanas et al. 1978 (hygromycin B)

## CN[C@H]1C[C@@H](N)[C@H](O)[C@@H](O[C@@H]2O[C@H](CO)[C@H](O)[C@@H]3OC4(O[C@H]23)O[C@H]([C@@H](N)CO)[C@H](O)[C@H](O)[C@H]4O)[C@@H]1O (stereo partly drawn) [hygromycin B, O-6-amino-6-deoxy-L-glycero-D-galacto-heptopyranosylidene-(12-3)-O-D-talopyranosyl-(15)-2-deoxy-N3-methyl-D-streptamine]
  minimum inhibitory concentration: around 6 μM

## CC(=O)c1cccc(NC2C(N)C(NC(=O)N(C)C)(C(C)O)C(C)(O)C2(O)COC(=O)c2c(C)cccc2O)c1 (centres unmarked) [pactamycin, 2-hydroxy-6-methylbenzoic acid [5-[(3-acetylphenyl)amino]-4-amino-3-[[(dimethylamino)-carbonyl]amino]-1,2-dihydroxy-3-(1-hydroxy-ethyl)-2-methylcyclopentyl]methyl ester]
  minimum inhibitory concentration: 8 to 80 µM
